The text below walks through data of patent US10201165B2 (Board of Trustees of Michigan State University, priority 2014, dated 2019).

For assay [1], the system named is fungi. Put plainly: Antifungal activity (test not specified). The note with it: compound identified from leaves of Prunus maackii.
The subject of another assay is Cladosporium cucumerinum. Description: TLC bioassay for detection of antimicrobial activity. Conditions: FIG. 3, white areas. In kind it is cell-based. As to the method:
A TLC-bioassay of extract from Prunus maackii, P. serotina, and P. mahelab was conducted using three different extraction methods. Periderm tissue was extracted in 80% acetone, in hot water, or in water in an autoclave. Extracts were tested for antimicrobial activity by a thin layer chromatography bioassay on cellulose TLC plates. Samples were separated with, and the plates were developed in, water.
For the TLC bioassay for the detection of antimicrobial activity, 5 μL of the samples (column fractions, suspended in 80% methanol) were applied to Analtech® silica gel (TLC) plates and were developed in a TLC tank (30×20×10 cm) using 100 mL of chloroform:methanol (8.5:1, v/v). Within 24 hours of developing the TLC plates, the plates were evenly sprayed with a dense fungal suspension of C. cucumerinum in ½ strength potato-dextrose broth and then placed in a moist incubation chamber for three days to allow fungal growth.

Assay [2] deals with fungi. The note with it: compound tentatively assigned to HPLC-MS peak around 255 g/mol; cited from earlier work.

Where two headings read alike, the source gives them in different places.

For `COc1c(O)cc(O)c2c1OC(c1ccccc1)CC2=O` (stereo not drawn) [Dihydrowogonin, 5,7-dihydroxy-8-methoxy-2-phenyl-2,3-dihydrochromen-4-one], the Antifungal activity result in the assay with fungi [1] is on record as “antifungal activity”.

For `COc1c(O)cc2oc(-c3ccccc3)c(O)c(=O)c2c1O` [alnusin, 3,5,7-trihydroxy-6-methoxyflavone], the “Fungal inhibition on TLC plate by isolated compounds” value in the assay with Cladosporium cucumerinum is given as “fungal inhibition”.

Turning to `O=C1C[C@@H](c2ccccc2)Oc2cc(O)cc(O)c21` [pinocembrin], in the assay with fungi [2], the Antifungal activity result is on record as “antifungal activity”.
